The values that follow are results of earlier work, collected in patent US20230233522A1, “COMPOSITIONS AND METHODS FOR TREATING EPILEPSY, SEIZURES AND OTHER CONDITIONS” (TULEX PHARMACEUTICALS INC., priority 2019, published 2023).

Take `CC1(C)O[C@@H]2[C@@H](CO[C@@]3(COS(N)(=O)=O)OC(C)(C)O[C@@H]23)O1` [Topiramate, 2,3:4,5-Di-O-isopropylidine-β-D-fructopyranose sulfamate]: the solubility in water entry is “about 9.8 mg/ml”.
